The text below walks through data of ChEMBL document CHEMBL1201862, “PubChem BioAssay data set” (2004).

The source made the active and inactive calls. Cut-off read from the data, not from the text of the source, for most assays here: actives have a measured EC50 and inactives only a lower limit.

Assay [1] addresses T1, Bcl-2-related protein A1 (Mus musculus, UniProt Q07440).
T1 sequence (Q07440 whole entry): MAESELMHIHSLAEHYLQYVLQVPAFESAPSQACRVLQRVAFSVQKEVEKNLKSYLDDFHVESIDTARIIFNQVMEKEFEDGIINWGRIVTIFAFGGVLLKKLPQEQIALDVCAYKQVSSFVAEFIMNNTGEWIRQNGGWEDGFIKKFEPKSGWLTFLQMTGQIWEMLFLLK
Description: Bfl-1 binding inhibitors, SAR follow-up, biochemical, fluorescence polarization (AID 1070).

Assay [2] concerns the target T1, Bcl-2-related protein A1. Nature of the assay: small-molecule antagonists of Bfl-1/BH3 interaction – biochemical, TR-FRET, mouse Bfl-1, confirmation (AID 621).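 Note: TR-FRET binding of GST-Bfl-1 to FITC-labelled Bid peptide via terbium antibody.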
Assay [3] can be described thus: Luminescence Cell-Based Dose Response HTS to Identify Inhibitors of 5'UTR Stem-Loop Driven Prion Protein mRNA Translation in H4 Neuroglioblastoma Cells. [Related pubchem assays: 1827 (Project Summary), 1813 (Primary HTS)]. It is filed as functional.
The nature of assay [4]: alpha-synuclein stem-loop luciferase translation blockers – H4 neuroglioma cells, luminescence, confirmation (AID 1988). It is filed as functional, cell-based.
Assay [5] concerns the target Sphingosine 1-phosphate receptor 2 (Homo sapiens, UniProt O95136). Nature of the assay: Dose Response Cell Based Assay for Antagonists of the S1P2 Receptor. [Related pubchem assays: 856, 736 ]. It is filed as functional.
A short description of assay [6]: luciferase reporter signal suppression in cells – H4 neuroglioma cells, luminescence, dose response (AID 1990). It is filed as functional, cell-based.
The test system of assay [7] is Streptococcus. Nature of the assay: GAS UMAA2166 growth inhibition – luminescence, BacTiterGlo, counter-screen for streptokinase expression inhibitor project, dose response (AID 1915).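 Note: potency for reduction of bacterial viability or growth.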 It is filed as functional, organism-based.
Assay [8] has as its system BJ. Nature of the assay: BJ-TERT-LT-ST fibroblast viability loss – cell-based, RAS-independent, luminescence, dose response (AID 1935).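 Note: BJ fibroblasts immortalized with TERT plus LT and ST oncogenes.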 It is filed as functional. The following applies: Homo sapiens.
The nature of assay [9]: viability of HCT116 lacking mutant beta-catenin – cell-based, human colon tumor, dose response (AID 1045).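 Note: HCT116 colon tumor cells with beta catenin knocked out; cells exposed to compound for 60 hours.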 It is filed as functional.
Assay [10] concerns the target T2, Histone-lysine N-methyltransferase NSD2 (Homo sapiens, UniProt O96028).
T2 sequence (O96028 whole entry): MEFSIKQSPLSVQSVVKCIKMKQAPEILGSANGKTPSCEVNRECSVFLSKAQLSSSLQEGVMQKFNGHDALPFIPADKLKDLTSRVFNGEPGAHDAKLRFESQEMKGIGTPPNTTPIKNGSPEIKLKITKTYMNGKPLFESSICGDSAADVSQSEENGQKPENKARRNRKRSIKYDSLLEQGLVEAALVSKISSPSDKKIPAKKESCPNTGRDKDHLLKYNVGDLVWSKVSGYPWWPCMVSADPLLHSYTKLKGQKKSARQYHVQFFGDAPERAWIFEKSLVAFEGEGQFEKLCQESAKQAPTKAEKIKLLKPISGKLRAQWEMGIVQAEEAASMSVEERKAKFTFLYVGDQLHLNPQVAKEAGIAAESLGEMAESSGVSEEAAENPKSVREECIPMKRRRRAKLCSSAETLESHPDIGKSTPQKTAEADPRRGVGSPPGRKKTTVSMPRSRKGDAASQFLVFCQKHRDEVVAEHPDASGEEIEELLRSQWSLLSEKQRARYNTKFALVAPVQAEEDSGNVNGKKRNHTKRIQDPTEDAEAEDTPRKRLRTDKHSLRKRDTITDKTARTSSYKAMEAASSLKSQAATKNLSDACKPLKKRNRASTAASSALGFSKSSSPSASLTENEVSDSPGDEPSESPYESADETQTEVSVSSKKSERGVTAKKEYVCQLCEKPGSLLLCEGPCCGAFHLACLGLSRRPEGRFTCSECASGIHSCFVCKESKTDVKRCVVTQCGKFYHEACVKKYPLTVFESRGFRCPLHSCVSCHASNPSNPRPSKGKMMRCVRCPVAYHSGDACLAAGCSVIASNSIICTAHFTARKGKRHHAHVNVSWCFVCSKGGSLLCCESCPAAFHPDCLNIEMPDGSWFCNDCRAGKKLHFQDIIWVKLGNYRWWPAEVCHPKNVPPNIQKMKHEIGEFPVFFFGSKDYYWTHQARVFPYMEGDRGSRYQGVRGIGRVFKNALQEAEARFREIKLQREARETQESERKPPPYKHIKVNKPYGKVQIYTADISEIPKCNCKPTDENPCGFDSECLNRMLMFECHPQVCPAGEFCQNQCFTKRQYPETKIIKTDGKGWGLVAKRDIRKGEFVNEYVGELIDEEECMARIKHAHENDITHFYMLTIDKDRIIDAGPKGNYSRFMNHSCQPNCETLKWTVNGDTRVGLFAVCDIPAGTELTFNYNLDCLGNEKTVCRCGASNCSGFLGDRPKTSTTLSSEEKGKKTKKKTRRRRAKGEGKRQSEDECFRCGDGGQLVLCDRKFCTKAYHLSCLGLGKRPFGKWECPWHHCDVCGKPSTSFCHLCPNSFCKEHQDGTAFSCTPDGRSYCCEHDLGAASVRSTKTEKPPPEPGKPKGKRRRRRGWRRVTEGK
It is filed as biochemical.

The subject of assay [11] is BJ. Nature of the assay: growth inhibition of engineered Ras-driven BJ cells – cell-based, alamar blue fluorescence, cherrypicked samples, dose response (AID 2631).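 Note: confirmatory dose-response assay in RAS-dependent BJ fibroblasts engineered with TERT, LT and ST, with cytotoxicity read by fluorescence.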 It is filed as functional. The following applies: Homo sapiens.
In assay [12] the test system is BJ. Description: cells. It is filed as functional, cell-based. The following applies: Homo sapiens.
The target in assay [13] is T3, Corticotropin-releasing factor receptor 2/Corticotropin-releasing factor-binding protein (Homo sapiens, UniProt P24387+Q13324).
T3 sequence (Q13324 whole entry): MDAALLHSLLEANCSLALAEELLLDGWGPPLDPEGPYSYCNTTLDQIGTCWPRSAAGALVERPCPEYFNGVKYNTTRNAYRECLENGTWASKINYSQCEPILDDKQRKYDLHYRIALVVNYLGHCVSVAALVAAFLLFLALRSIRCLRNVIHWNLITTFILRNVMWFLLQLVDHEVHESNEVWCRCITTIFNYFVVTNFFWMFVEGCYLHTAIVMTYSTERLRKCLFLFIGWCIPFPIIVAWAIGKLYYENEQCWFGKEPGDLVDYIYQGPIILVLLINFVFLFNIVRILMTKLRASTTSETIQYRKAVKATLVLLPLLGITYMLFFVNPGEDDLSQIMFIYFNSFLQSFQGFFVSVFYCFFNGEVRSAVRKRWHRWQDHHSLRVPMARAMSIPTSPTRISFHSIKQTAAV
T3 sequence (P24387 whole entry): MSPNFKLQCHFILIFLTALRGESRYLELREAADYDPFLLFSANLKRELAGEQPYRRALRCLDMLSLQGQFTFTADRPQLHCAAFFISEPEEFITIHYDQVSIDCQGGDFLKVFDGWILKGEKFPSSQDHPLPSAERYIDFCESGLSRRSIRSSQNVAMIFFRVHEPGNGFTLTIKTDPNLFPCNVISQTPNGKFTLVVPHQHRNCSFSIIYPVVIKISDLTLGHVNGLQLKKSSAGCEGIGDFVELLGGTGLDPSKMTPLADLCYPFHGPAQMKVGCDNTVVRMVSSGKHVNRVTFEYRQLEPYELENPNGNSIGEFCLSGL
Description: activators of CRF receptor 2 with binding protein – uHTS hits, confirmation (AID 602473). The following applies: read-out: EC50_Mean. It is filed as functional.

In assay [14] the test system is BJ. Description: BJ-TERT fibroblast viability loss – cell-based, RAS-independent, luminescence, dose response (AID 1933). It is filed as functional. The following applies: Homo sapiens.
Assay [15] in a line: DRD fibroblast viability loss – cell-based, non-viral oncogenic, luminescence, dose response (AID 1934). It is filed as functional. The following applies: Homo sapiens.
Assay [16] concerns Streptococcus sp. 'group A'. Description: Streptococcus pyogenes SK(-)GAS viability under kanamycin – luminescence, BacTiterGlo, confirmation, counter-screen for streptokinase expression inhibitor project, dose response (AID 1900). It is filed as functional, organism-based.
Assay [17] in a line: viability of PTEN-deleted HCT116 cells – cell-based, HCT116 PTEN knockout, dose response (AID 1047).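 Note: HCT116 colon tumor cells with PTEN knocked out; cells exposed to compound for 60 hours before readout; potency for loss of cell viability measured by luminescence.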 It is filed as functional.
In assay [18] the target is Mitogen-activated protein kinase 10 (Homo sapiens, UniProt P53779). Nature of the assay: Dose response biochemical screening assay for inhibitors of c-Jun N-Terminal Kinase 3 (JNK3). [Related pubchem assays: 746 ].
Sequence of Mitogen-activated protein kinase 10 (P53779 whole entry): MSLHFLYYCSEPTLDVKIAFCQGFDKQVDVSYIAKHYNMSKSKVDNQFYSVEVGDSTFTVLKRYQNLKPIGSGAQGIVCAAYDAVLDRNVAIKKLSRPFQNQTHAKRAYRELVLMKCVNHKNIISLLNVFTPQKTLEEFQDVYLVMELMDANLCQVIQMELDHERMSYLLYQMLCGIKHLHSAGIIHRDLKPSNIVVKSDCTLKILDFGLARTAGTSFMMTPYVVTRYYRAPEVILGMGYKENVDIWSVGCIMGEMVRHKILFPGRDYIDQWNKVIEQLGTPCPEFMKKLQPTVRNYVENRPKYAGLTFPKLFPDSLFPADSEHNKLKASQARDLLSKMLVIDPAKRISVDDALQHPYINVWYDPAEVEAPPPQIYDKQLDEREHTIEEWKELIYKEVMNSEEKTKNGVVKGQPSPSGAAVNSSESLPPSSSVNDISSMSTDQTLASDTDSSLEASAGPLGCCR

Sequence of Sphingosine 1-phosphate receptor 2 (O95136 whole entry): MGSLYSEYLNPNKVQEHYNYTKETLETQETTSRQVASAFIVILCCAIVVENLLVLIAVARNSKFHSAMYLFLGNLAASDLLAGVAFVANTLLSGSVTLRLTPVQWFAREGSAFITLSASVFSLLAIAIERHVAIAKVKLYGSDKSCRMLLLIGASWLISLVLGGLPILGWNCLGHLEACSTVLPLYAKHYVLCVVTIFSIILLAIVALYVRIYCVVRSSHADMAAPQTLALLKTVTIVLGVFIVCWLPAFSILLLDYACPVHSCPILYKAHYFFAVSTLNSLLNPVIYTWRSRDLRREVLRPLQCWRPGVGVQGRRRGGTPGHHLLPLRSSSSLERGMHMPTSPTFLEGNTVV

Turning to `Cc1cccc(N2CCN(C3=C(Cl)C(=O)N(c4ccc(Cl)c(Cl)c4)C3=O)CC2)c1`, the IC50 in [1] and in [2] was > 100 µM (not active) in each case.
On to `O=C(c1cc(NC(=O)C23CC4CC(CC(C4)C2)C3)cc(NC(=O)C23CC4CC(CC(C4)C2)C3)c1)N1CCCCC1`, for which the EC50 is 15.7 µM (active) in [3], 12.2 µM (inconclusive) in assay [4] and 17.1 µM (active) in assay [6]. In addition, in [5], the IC50 is 0.977 µM (active).
Turning to `Clc1ccc(-n2nnc(-c3cnc4ccccc4c3)n2)cn1`, the IC50 in assay [1] and in [2] was > 100 µM (not active) each time.
As for `CCN1/C(=C\C=C\C2=[N+](CC)c3ccccc3C2(C)C)C(C)(C)c2ccccc21.[O-][Cl+3]([O-])([O-])[O-]`, the EC50 is 19.5 µM (active) in assay [7]; 2.01 µM (active) in [8]; < 0.059 µM (active) in assay [9]; 0.273 µM (active) in [11]; 0.664 µM (active) in assay [12]; 3.74 µM (active) in assay [13]. In addition, the EC50 is 0.395 µM (inconclusive) in [14], 0.903 µM (active) in assay [15], 5.96 µM (active) in assay [16] and < 0.059 µM (active) in assay [17]. Besides, the AC50 in assay [10] was > 20 µM (inactive). The IC50 in [5] was 0.587 µM (active).
Take `COc1ccc(CNC(=O)c2cnn3c(C(F)F)cc(C)nc23)cc1OC`: the IC50 in assay [18] is listed as > 31 µM (not active).
